Assay results taken from PubChem BioAssay AID179 (DTP/NCI, 2004).
Values joined by “and” are separate entries in the source; they are usually repeats but may differ in a detail not shown here. Identical values can stand only once. Active and inactive are the calls of the source.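 How the source made its calls: active means compounds giving half or more protection of infected cells from virus-caused growth loss, again on retest; inactive means the rest.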 Where a SMILES comes first, the peptide text is derived from it. The star is where a group is joined. Boc = CC(C)(C)OC(=O)*; OBn = c1ccc(CO*)cc1; Bn = c1ccc(C*)cc1

Test system: CEM cells HIV-1 protection, formazan growth assay
Experiment: NCI AIDS Antiviral Assay
Details: for IC50: measured here: growth of uninfected CEM cells
Description: The ability of compounds to protect human CEM cells from HIV-1 infection is measured as a screen for new compounds capable of inhibiting the HIV virus. Five concentrations of drug were tested on uninfected and infected cells and cell growth was measured using a soluble formazan assay. […] Compounds that provided at least 50% protection were retested. Compounds that provided at least 50% protection on retest were listed as moderately active. Compounds that reproducibly provided 100% protection were listed as confirmed active. […] Note that the inability to provide protection could be due to toxicity.

Row | SMILES | EC50 | IC50 | outcome
1 | CCOC(=O)NC(Nc1ccc(S(=O)(=O)Nc2nc(C)cc(C)n2)cc1)(C(=O)OCC)C(F)(F)F (stereo unspecified) | > 200 µM | > 200 µM | –
2 | C=C(Br)CN1CCC2(c3ccccc3)C(=O)C([Se]c3ccccc3)CCC12 (stereo unspecified) | > 14.8 µM | > 14.8 µM | –
3 | Nc1nc2c3nc(Nc4ccccc4)sc3nc(=S)n2c2sc(Nc3ccccc3)nc12 | > 11 µM | > 11 µM | –
4 | O=[N+]([O-])c1ccc(Oc2ccc(S(=O)(=O)c3ccc(Oc4ccc([N+](=O)[O-])cc4)c([N+](=O)[O-])c3)cc2[N+](=O)[O-])cc1 | > 200 µM | > 200 µM | –
5 | O=C(O)CCCCCCCCCCCI | 27.5 µM | 110 µM | –
6 | CN=C(SC)N(C)c1nc(=[N+](C)C)ss1 | – | – | inactive
7 | C=CC(=O)N1C/C(=C\c2ccccc2)C(=O)/C(=C/c2ccccc2)C1 | > 15.8 µM | 0.933 µM | –
8 | NC(CCC(=O)NC(CSc1ccc([N+](=O)[O-])cc1[N+](=O)[O-])C(=O)NCC(=O)O)C(=O)O (stereo unspecified) | > 525 µM | > 525 µM | –
9 | O=C1CCCc2cc3c(cc21)CCC3C(=O)O (stereo unspecified) | – | – | inactive
10 | CN(C)C(=S)SSSSC(=S)N(C)C | > 2 µM | 0.525 µM | –
11 | CC(C)(C)c1n[nH]c(C(C)(C)C)c1N=O | > 200 µM | 97.7 µM | –
12 | CC(C)CC(NC(=O)C(Cc1ccc(O)cc1)NC(=O)C(CO)NC(=O)C(CCC(N)=O)NC(=O)C1CCCN1C(=O)C(CC(C)C)NC(=O)C(C)NC(=O)CNC(=O)C(N)CCC(N)=O)C(=O)NCC(=O)O (stereo unspecified) (H-QGALPQSYLG-OH; configuration not given here) | – | – | inactive
13 | COc1ccc2c(c1)NC(=O)C(O)(Cc1ccccc1)C2=O (stereo unspecified) | > 200 µM | > 200 µM | –
14 | COC(=O)C1(Cc2cccc(Cl)c2)CCCCCCN1C(=O)c1ccccc1 (stereo unspecified) | > 112 µM | 20.4 µM | –
15 | O=c1c(O)c(-c2ccc(O)cc2O)oc2cc(O)cc(O)c12 | – | – | inactive
16 | COc1cc2oc(=O)cc(C)c2cc1[N+](=O)[O-] | > 53.7 µM | 21.9 µM | –
17 | CC(C)CC(NC(=O)C(Cc1ccccc1)NC(=O)C(COCc1ccccc1)NC(=O)OC(C)(C)C)C(=O)OCc1ccccc1 (stereo not drawn) (Boc-Ser(Bn)-Phe-Leu-OBn; configuration not given here) | > 200 µM | 13.2 µM | –
18 | CC1CCCN(CC(O)CN2CCN(CC(O)CN3CCCC(C)C3)C(C)C2)C1 (stereo unspecified) | > 316 µM | > 316 µM | –
19 | CCN(CC)c1c(C(=O)/C=C/c2ccc(F)cc2)c(-c2ccccc2)nn(C)c1=O | > 33.9 µM | 7.24 µM | –
20 | O=c1[nH]nc(Nc2ccccc2)c2nnn(C3CCCCC3)c12 | > 174 µM | > 174 µM | –
21 | Cc1cc(-c2ccccc2)[s+]s1 | > 200 µM | 89.1 µM and 174 µM | –

Row | SMILES | EC50 | IC50 | outcome
22 | O=C(CN1CCC(O)(c2ccccc2)CC1)N1CCN(/C=C/c2ccccc2)CC1 | > 200 µM | 58.9 µM | –
23 | O=C(ON(Cc1ccccc1)C(=O)C1C=CC=C1)C1=CCC=C1 | > 17 µM | > 17 µM | –
24 | CC1(CCC2C=CCC2)CCCNC1=S (stereo unspecified) | 38 µM | 89.1 µM | –
25 | COC(=O)C1=C(C(=O)OC)C2CCC1CC2=O (stereo unspecified) | > 200 µM | 44.7 µM | –
26 | COc1nc2c(c(O)c(C)c(=O)n2OC2OC(COC(C)=O)C(OC(C)=O)C(OC(C)=O)C2OC(C)=O)c(=O)n1C (stereo unspecified) | > 61.7 µM | > 61.7 µM | –
27 | CC(=Nc1ccccc1C(=O)[O-])c1c([O-])ccc2c(C)cc(=O)oc12.[Cu+2].[OH3+] | > 1.32 µM | > 1.32 µM | –
28 | COc1ccc(C2=NNC(=O)C2(C)Br)cc1 (stereo unspecified) | > 200 µM | 42.7 µM | –
29 | CC(=O)OC1CCn2c1nc1cc([N+](=O)[O-])c(C)cc12 (stereo unspecified) | > 200 µM | > 200 µM | –
30 | O=c1[nH]cc(S)c(=O)[nH]1 | 151 µM | > 200 µM | –
31 | O=C1NC(Cc2ccc(O)cc2)C(=O)NC1Cc1ccc(O)cc1 (stereo unspecified) | > 100 µM | > 100 µM | –
32 | CCOC(=O)C(C(=N)C(=N)C(C(=O)O)C(=O)OCC)C(=O)O (stereo unspecified) | – | – | inactive
33 | Cc1ccc2nnn3c(=N)nc(N)nc3c2c1 | > 79.4 µM | > 79.4 µM | –
34 | Cc1noc2c1NC(=O)OC(C)(C)C2 | > 447 µM | > 447 µM | –
35 | O=C1c2ccccc2C(=O)c2c1ccc1c3ccccc3n(Cc3ccccc3)c21 | – | – | inactive
36 | CC(C)c1c2[nH]c3ccccc3c2c(C(C)C)c2[nH]c3ccccc3c12 | > 20 µM | > 20 µM | –
37 | N#Cc1sc2nc3c(c(-c4ccccc4)c2c1N)CCCC3 | – | – | inactive
38 | CCOCCOCCOCc1nc(C#N)c(N)o1 | > 200 µM | > 200 µM | –
39 | O=[N+]([O-])c1ccc(C=C2C=CN(CCO)C=C2)cc1 | > 200 µM | > 200 µM | –
40 | Cc1cccc2c1C(=O)OC2(c1cccc2ccccc12)c1cccc2ccccc12 | – | – | inactive
41 | CCCCCCCCCCCC(=O)CC(=O)c1c(O)cccc1O | > 15.5 µM | > 15.5 µM | –
42 | c1ccc(OCC[P+](c2ccccc2)(c2ccccc2)c2ccccc2)cc1 | > 200 µM | 0.501 µM | –

Row | SMILES | EC50 | IC50 | outcome
43 | CCCCCOB(OCCCCC)OCCCCC | – | – | inactive
44 | CCCCCCCCCCCCNC(=O)C(O)C(O)C(O)C(COS(=O)(=O)O)OS(=O)(=O)O (stereo unspecified) | > 200 µM | 30.2 µM | –
45 | N#C/C(C(=O)Nc1ccc(Cl)cc1)=C(/N)N1CCCC1 | > 200 µM | > 200 µM | –
46 | Cc1c(Cc2cc(C(C)(C)C)c(O)c(C(C)(C)C)c2)c(C)c(Cc2cc(C(C)(C)C)c(O)c(C(C)(C)C)c2)c(C)c1Cc1cc(C(C)(C)C)c(O)c(C(C)(C)C)c1 | – | – | inactive
47 | NC1=NC2(O)c3ccccc3C(=O)C2(O)N1 (stereo unspecified) | > 45.7 µM | 28.8 µM | –
48 | CCOC(=O)C(/C=N/C(=S)Nc1c(C)cccc1C)=C(/O)c1ccccc1 | > 200 µM | > 200 µM | –
49 | COc1ccc(/C=C2\CN(C)CC3=C2OC(N)=C(C#N)C3c2ccc(OC)cc2)cc1 (stereo unspecified) | > 200 µM | 19.1 µM | –
50 | CCCCCCCCCCCCCCCCOC1OC(CSSCC2OC(OCCCCCCCCCCCCCCCC)C(O)C(O)C2O)C(O)C(O)C1O (stereo unspecified) | 5.25 µM | 6.03 µM | –
51 | O=[N+]([O-])c1ccc2nncc(N3CC3)c2c1 | – | – | inactive
52 | Cc1[nH]c2ccccc2c1C1CC(=O)NC1=O (stereo unspecified) | – | – | inactive
53 | COc1ccc2c(c1)CCC1OC(c3cccnc3)OC21 (stereo unspecified) | > 200 µM | 30.2 µM | –
54 | CCCCCCCC/C=C/CCCCCCCC1CC(O)C(=O)O1 (stereo unspecified) | > 200 µM | 191 µM | –
55 | COc1ccccc1NC(=O)C1=C(C)NC(C)=C(C(=O)Nc2ccccc2OC)C1c1ccc([N+](=O)[O-])cc1 | > 9.77 µM | > 9.77 µM | –
56 | O=C1CCCCC1CN(Cc1ccccc1)Cc1ccccc1 (stereo unspecified) | – | – | inactive
57 | C[C@@]1(Cc2ccccc2)C(=O)N2[C@@H](CO)C(c3ccccc3)O[C@]2(C)c2ccccc21 (stereo partly specified) | > 33.1 µM | > 33.1 µM | –
58 | O=C(O/C=C\OC1CCCC1(c1ccccc1)c1ccccc1)c1ccccc1 (stereo unspecified) | > 200 µM | 3.8 µM | –
59 | O=C1NC(N/N=C\C(O)C(O)C(O)C(O)CO)=N/C1=C/c1ccccc1 (stereo unspecified) | > 200 µM | 105 µM and 31.6 µM and > 200 µM | –
60 | CCOP(=S)(N/N=C\C(C)(C)C1CCCCC1)OCC | > 200 µM | 30.9 µM | –
61 | CC1=NN(c2ccccc2)C(=O)C1N=Nc1ccc(S(N)(=O)=O)cc1 (stereo unspecified) | – | – | inactive
62 | COc1cc(/C=C2/SC(c3ccccc3)N(c3cccc(NC(C)=O)c3)C2=O)cc(OC)c1OC (stereo unspecified) | > 200 µM | 53.7 µM | –
63 | CNC(=O)O/N=C(\C(=N\OC(=O)NC)c1ccccc1)c1ccccc1 | – | – | inactive
